Measured values: ChEMBL document CHEMBL3414511, “Synthesis of a novel class of substituted benzothiophene or benzofuran derivatives as BMP-2 up-regulators and evaluation of the BMP-2-up-regulating effects in vitro and the effects on glucocorticoid-induced osteoporosis in rats” (Eur J Med Chem, 2015)
Activity calls are given as the source filed them. The calls are words filed in the database; no cut-off is given here.

Tests used:
Rattus norvegicus [1] = assay: Toxicity in glucocorticoid-induced Wistar rat osteoporosis model assessed as white blood cells at 30 mg/kg/day, po administered six times a week for 3 months (reference value: 6.28 +/- 2.78 x 10^9/L); type: organism-based; design: route oral; conditions: in vivo
Rattus norvegicus [2] = assay: Toxicity in glucocorticoid-induced Wistar rat osteoporosis model assessed as lymph level at 30 mg/kg/day, po administered six times a week for 3 months (reference value: 50.35 +/- 12.96%); type: organism-based; design: route oral; conditions: in vivo
Rattus norvegicus [3] = assay: Toxicity in glucocorticoid-induced Wistar rat osteoporosis model assessed as neutrophilic granulocytes level at 30 mg/kg/day, po administered six times a week for 3 months (reference value: 31.95 +/- 8.33%); type: organism-based; design: route oral; conditions: in vivo
Rattus norvegicus [4] = assay: Toxicity in glucocorticoid-induced Wistar rat osteoporosis model assessed as effect on red blood cells at 30 mg/kg/day, po administered six times a week for 3 months; type: organism-based; design: route oral; conditions: in vivo
Rattus norvegicus [5] = assay: Toxicity in glucocorticoid-induced Wistar rat osteoporosis model assessed as effect on hemoglobin at 30 mg/kg/day, po administered six times a week for 3 months; type: organism-based; design: route oral; conditions: in vivo
Rattus norvegicus [6] = assay: Toxicity in glucocorticoid-induced Wistar rat osteoporosis model assessed as effect on red blood cell specific volume at 30 mg/kg/day, po administered six times a week for 3 months; type: organism-based; design: route oral; conditions: in vivo
Rattus norvegicus [7] = assay: Toxicity in glucocorticoid-induced Wistar rat osteoporosis model assessed as effect on mean corpuscular volume at 30 mg/kg/day, po administered six times a week for 3 months; type: organism-based; design: route oral; conditions: in vivo
Rattus norvegicus [8] = assay: Toxicity in glucocorticoid-induced Wistar rat osteoporosis model assessed as effect on mean corpuscular hemoglobin concentration at 30 mg/kg/day, po administered six times a week for 3 months; type: organism-based; design: route oral; conditions: in vivo
Rattus norvegicus [9] = assay: Toxicity in glucocorticoid-induced Wistar rat osteoporosis model assessed as effect on red blood cell distribution width at 30 mg/kg/day, po administered six times a week for 3 months; type: organism-based; design: route oral; conditions: in vivo
Rattus norvegicus [10] = assay: Toxicity in glucocorticoid-induced Wistar rat osteoporosis model assessed as effect on platelets at 30 mg/kg/day, po administered six times a week for 3 months; type: organism-based; design: route oral; conditions: in vivo
[11] = Upregulation of BMP-2 expression in mouse MC3T3-E1 cells at 4 uM after 24 hrs by luciferase reporter gene assay relative to control; type: functional, cell-based
Rattus norvegicus [12] = assay: Toxicity in glucocorticoid-induced Wistar rat osteoporosis model assessed as aspartate transaminase level at 30 mg/kg/day, po administered six times a week for 3 months (reference value: 177.55 +/- 116.98 U/L); type: organism-based; design: route oral; conditions: in vivo
Rattus norvegicus [13] = assay: Toxicity in glucocorticoid-induced Wistar rat osteoporosis model assessed as alanine transaminase level at 30 mg/kg/day, po administered six times a week for 3 months (reference value: 43.73 +/- 36.21 U/L); type: organism-based; design: route oral; conditions: in vivo
Rattus norvegicus [14] = assay: Toxicity in glucocorticoid-induced Wistar rat osteoporosis model assessed as triglycerides level at 30 mg/kg/day, po administered six times a week for 3 months (reference value: 1.13 +/- 0.69 mmol/L); type: organism-based; design: route oral; conditions: in vivo
Rattus norvegicus [15] = assay: Toxicity in glucocorticoid-induced Wistar rat osteoporosis model assessed as effect on total bilirubin level at 30 mg/kg/day, po administered six times a week for 3 months; type: organism-based; design: route oral; conditions: in vivo
Rattus norvegicus [16] = assay: Toxicity in glucocorticoid-induced Wistar rat osteoporosis model assessed as effect on total protein level at 30 mg/kg/day, po administered six times a week for 3 months; type: organism-based; design: route oral; conditions: in vivo
Rattus norvegicus [17] = assay: Toxicity in glucocorticoid-induced Wistar rat osteoporosis model assessed as effect on albumin level at 30 mg/kg/day, po administered six times a week for 3 months; type: organism-based; design: route oral; conditions: in vivo
Rattus norvegicus [18] = assay: Toxicity in glucocorticoid-induced Wistar rat osteoporosis model assessed as effect on blood urea nitrogen level at 30 mg/kg/day, po administered six times a week for 3 months; type: organism-based; design: route oral; conditions: in vivo
Rattus norvegicus [19] = assay: Toxicity in glucocorticoid-induced Wistar rat osteoporosis model assessed as effect on creatinine level at 30 mg/kg/day, po administered six times a week for 3 months; type: organism-based; design: route oral; conditions: in vivo
Rattus norvegicus [20] = assay: Toxicity in glucocorticoid-induced Wistar rat osteoporosis model assessed as effect on glucose level at 30 mg/kg/day, po administered six times a week for 3 months; type: organism-based; design: route oral; conditions: in vivo
[21] = Acute toxicity in po dosed Kunming mouse administered for 3 days measured during compound dosing and following 14 days; type: organism-based; conditions: in vivo
Rattus norvegicus [22] = assay: Antiosteoporotic activity in glucocorticoid-induced Wistar rat osteoporosis model assessed as densed trabecula at 30 mg/kg/day, po administered six times a week for 3 months by toluidine blue staining-based light microscopic analysis relative to dexamethasone; type: functional, organism-based
Rattus norvegicus [23] = assay: Antiosteoporotic activity in glucocorticoid-induced Wistar rat osteoporosis model assessed as trabecular bone volume at 30 mg/kg/day, po administered six times a week for 3 months by fluorescence assay (reference value: 33.09 +/- 5.15%); type: functional, Trabecula
Rattus norvegicus [24] = assay: Antiosteoporotic activity in glucocorticoid-induced Wistar rat osteoporosis model assessed as trabecula formation surface at 30 mg/kg/day, po administered six times a week for 3 months by fluorescence assay (reference value: 7.82 +/- 2.46%); type: functional
Rattus norvegicus [25] = assay: Antiosteoporotic activity in glucocorticoid-induced Wistar rat osteoporosis model assessed as trabecula resorption surface at 30 mg/kg/day, po administered six times a week for 3 months by fluorescence assay (reference value: 7.22 +/- 2.04%); type: functional
Rattus norvegicus [26] = assay: Antiosteoporotic activity in glucocorticoid-induced Wistar rat osteoporosis model assessed as mineral apposition rate at 30 mg/kg/day, po administered six times a week for 3 months by fluorescence assay (reference value: 1.06 +/- 0.27 micrometer/day); type: functional
Mus musculus [27] = assay: Acute toxicity in Kunming mouse assessed as behavioral changes at 500 mg/kg, po administered for 3 days measured during compound dosing and following 14 days; type: organism-based; design: dose 500 mg/kg, route oral; conditions: in vivo, 336 h
Mus musculus [28] = assay: Acute toxicity in Kunming mouse assessed as shiny fur at 500 mg/kg, po administered for 3 days measured during compound dosing and following 14 days; type: organism-based; design: dose 500 mg/kg, route oral; conditions: in vivo, 336 h
Rattus norvegicus [29] = assay: Antiosteoporotic activity in glucocorticoid-induced Wistar rat osteoporosis model assessed as increase in trabecula number at 30 mg/kg/day, po administered six times a week for 3 months by toluidine blue staining-based light microscopic analysis relative to dexamethasone; type: functional, organism-based
Rattus norvegicus [30] = assay: Antiosteoporotic activity in glucocorticoid-induced Wistar rat osteoporosis model assessed as increase in trabecula thickness at 30 mg/kg/day, po administered six times a week for 3 months by toluidine blue staining-based light microscopic analysis relative to dexamethasone; type: functional, organism-based
Rattus norvegicus [31] = assay: Antiosteoporotic activity in glucocorticoid-induced Wistar rat osteoporosis model assessed as increase in trabecula area at 30 mg/kg/day, po administered six times a week for 3 months by toluidine blue staining-based light microscopic analysis relative to dexamethasone; type: functional, organism-based
Rattus norvegicus [32] = assay: Antiosteoporotic activity in glucocorticoid-induced Wistar rat osteoporosis model assessed as increase in trabecula connectivity at 30 mg/kg/day, po administered six times a week for 3 months by toluidine blue staining-based light microscopic analysis relative to dexamethasone; type: functional, organism-based
Mus musculus [33] = assay: Acute toxicity in Kunming mouse assessed as behavioral changes at 700 mg/kg, po administered for 3 days measured during compound dosing and following 14 days; type: organism-based; design: dose 700 mg/kg, route oral; conditions: in vivo, 336 h
Mus musculus [34] = assay: Acute toxicity in Kunming mouse assessed as shiny fur at 700 mg/kg, po administered for 3 days measured during compound dosing and following 14 days; type: organism-based; design: dose 700 mg/kg, route oral; conditions: in vivo, 336 h
[35] = Upregulation of BMP-2 expression in mouse MC3T3-E1 cells at 0.4 uM after 24 hrs by luciferase reporter gene assay relative to control; type: functional, cell-based

Compound | Activity (Rattus norvegicus [1]) [×10⁹ /L] | Activity (Rattus norvegicus [2]) [%] | Activity (Rattus norvegicus [3]) [%] | Activity (Rattus norvegicus [4]) | Activity (Rattus norvegicus [5]) | Activity (Rattus norvegicus [6]) | Activity (Rattus norvegicus [7]) | Activity (Rattus norvegicus [8]) | Activity (Rattus norvegicus [9]) | Activity (Rattus norvegicus [10]) | Activity (Rattus norvegicus [12]) [U/L] | Activity (Rattus norvegicus [13]) [U/L] | Activity (Rattus norvegicus [14]) [mmol/L] | Activity (Rattus norvegicus [15]) | Activity (Rattus norvegicus [16]) | Activity (Rattus norvegicus [17]) | Activity (Rattus norvegicus [18]) | Activity (Rattus norvegicus [19]) | Activity (Rattus norvegicus [20]) | LD50 at 336 h [21] [mg/kg] | further results
CC(=O)c1cc2cc(C(=O)O)ccc2s1 | 3.31 | 36.73 | 47.71 | Non-toxic | Non-toxic | Non-toxic | Non-toxic | Non-toxic | Non-toxic | Non-toxic | 103.17 | 26.67 | 0.62 | Non-toxic | Non-toxic | Non-toxic | Non-toxic | Non-toxic | Non-toxic | > 500 | Activity [11]: 93.2%; Activity (Rattus norvegicus [22]): Active; Activity (Rattus norvegicus [23]): 23.13%; Activity (Rattus norvegicus [24]): 5.03%; Activity (Rattus norvegicus [25]): 10.3%; Activity (Rattus norvegicus [26]): 1.03 micrometer/day; Activity (Mus musculus [27]): Non-toxic; Activity (Mus musculus [28]): Non-toxic
CCOC(=O)c1cc2ccc(C(=O)OC)cc2s1 | 3.03 | 46.39 | 40.03 | Non-toxic | Non-toxic | Non-toxic | Non-toxic | Non-toxic | Non-toxic | Non-toxic | 124.42 | 26.25 | 0.36 | Non-toxic | Non-toxic | Non-toxic | Non-toxic | Non-toxic | Non-toxic | > 700 | Activity [11]: 123%; Activity (Rattus norvegicus [29]): Active; Activity (Rattus norvegicus [30]): Active; Activity (Rattus norvegicus [31]): Active; Activity (Rattus norvegicus [32]): Active; Activity (Rattus norvegicus [23]): 28.61%; Activity (Rattus norvegicus [24]): 6.69%; Activity (Rattus norvegicus [25]): 8.92%; Activity (Rattus norvegicus [26]): 1.13 micrometer/day; Activity (Mus musculus [33]): Non-toxic; Activity (Mus musculus [34]): Non-toxic
CC[C@H](C)C(=O)O[C@H]1C[C@@H](C)C=C2C=C[C@H](C)[C@H](CC[C@@H]3C[C@@H](O)CC(=O)O3)[C@H]21 | – | – | – | – | – | – | – | – | – | – | – | – | – | – | – | – | – | – | – | – | Activity [35]: 20.9%
CCOC(=O)c1cc2cc3c(cc2s1)OCO3 | 3.27 | 46.29 | 41.49 | Non-toxic | Non-toxic | Non-toxic | Non-toxic | Non-toxic | Non-toxic | Non-toxic | 114.82 | 28.27 | 0.34 | Non-toxic | Non-toxic | Non-toxic | Non-toxic | Non-toxic | Non-toxic | > 500 | Activity (Rattus norvegicus [22]): Active; Activity (Rattus norvegicus [23]): 22.07%; Activity (Rattus norvegicus [24]): 5.72%; Activity (Rattus norvegicus [25]): 9.43%; Activity (Rattus norvegicus [26]): 0.95 micrometer/day; Activity (Mus musculus [27]): Non-toxic; Activity (Mus musculus [28]): Non-toxic
COC(=O)c1ccc2cc(C(C)=O)sc2c1 | 4.52 | 34.98 | 48.93 | Non-toxic | Non-toxic | Non-toxic | Non-toxic | Non-toxic | Non-toxic | Non-toxic | 119.08 | 31.55 | 0.52 | Non-toxic | Non-toxic | Non-toxic | Non-toxic | Non-toxic | Non-toxic | > 700 | Activity [11]: 85.2%; Activity (Rattus norvegicus [22]): Active; Activity (Rattus norvegicus [23]): 24.72%; Activity (Rattus norvegicus [24]): 5.95%; Activity (Rattus norvegicus [25]): 9.52%; Activity (Rattus norvegicus [26]): 0.99 micrometer/day; Activity (Mus musculus [33]): Non-toxic; Activity (Mus musculus [34]): Non-toxic
